SMILES strings stand for the structures.

Experiment [1] has as its target T1, pseudo-kinase domain (JH2, amino-acids 536-812 with 3 surface mutations W659A, W777A, F794H) of human V617F mutant JAK2 (Homo sapiens, UniProt O60674, F794H/V617F/W659A/W777A).
T1 construct: pseudo-kinase domain (JH2, amino-acids 536-812 with 3 surface mutations W659A, W777A, F794H); His (C); Avi (biotinylated) (C); purchased BPS Bioscience 79498; host or cells: baculovirus expression system
Put plainly: JAK2 LanthaScreen JH2-V617F Binding Assay. To be noted: JAK2 JH2-V617F (0.26 nM), 50 nM Fluorescent JAK2-JH2 Tracer, 1 hour at 25° C.; read-out: JH2 BIND V617F. On the procedure: Example C. JAK2 LanthaScreen JH2-V617F Binding Assay
(§1) JAK2 JH2-V617F binding assay utilizes pseudo-kinase domain (JH2, amino-acids 536-812 with 3 surface mutations W659A, W777A, F794H) of human V617F mutant JAK2 expressed as C-terminal His-Avi-tagged, biotinylated protein in a baculovirus expression system (BPS Bioscience, Catalog #79498). The assay was conducted in black 384-well polystyrene plates in a final reaction volume of 20 μL. JAK2 JH2-V617F (0.26 nM) was incubated with compounds (100 nL serially diluted in DMSO) in the presence of 50 nM Fluorescent JAK2-JH2 Tracer (MedChem Express Catalog #HY-102055) and 0.25 nM Streptavidin-Tb cryptate (Cisbio Part #610SATLB) in assay buffer (50 mM Tris, pH=7.5, 10 mM MgCl2, 0.01% Brij-35, 0.1% BSA, 1 mM EGTA, 5% Glycerol and 5 mM DTT). Non-specific binding was accessed in the presence of 2 mM ATP. After incubation for 1 hour at 25° C., LanthaScreen signals were read on a PHERAstar FS plate reader (BMG LABTECH). Data was analyzed with IDBS XLfit and GraphPad Prism 5.0 software using a four parameter dose response curve to determine IC50 for each compound.
For orientation: Time-resolved FRET reads energy transfer from a long-lived donor to a nearby acceptor.

For experiment [2], the target named is T2, pseudo-kinase domain (JH2, amino-acids 536-812 with 3 surface mutations W659A, W777A, F794H) of human Wild Type JAK2 (Homo sapiens, UniProt O60674, F794H/W659A/W777A).
T2 construct: pseudo-kinase domain (JH2, amino-acids 536-812 with 3 surface mutations W659A, W777A, F794H); His (C); Avi (biotinylated) (C); purchased BPS Bioscience 79463; host or cells: baculovirus expression system
Put plainly: JAK2 LanthaScreen JH2-WT Binding Assay. To be noted: JAK2 JH2-WT (0.145 nM), 50 nM Fluorescent JAK2-JH2 Tracer, 1 hour at 25° C.; read-out: JH2 BIND WT. On the procedure:
Example B. JAK2 LanthaScreen JH2-WT Binding Assay
as §1, with “JH2-WT” for “JH2-V617F”, “Wild Type” for “V617F mutant”, “#79463).” for “#79498).”, “JH2-WT (0.145” for “JH2-V617F (0.26”

The target of experiment [3] is T3, catalytic domain (JH1, amino acids 826-1132) of human JAK2 (Homo sapiens, UniProt O60674).
T3 construct: catalytic domain (JH1, amino acids 826-1132) of human JAK2; FLAG (N); purchased Carna Biosciences 08-445-20N; host or cells: baculovirus expression system
Put plainly: JAK2 LanthaScreen JH1 Binding Assay. The following applies: JAK2 JH1 (1.5 nM), 50 nM fluorescent JAK2-JH1 tracer, 2 hours at 25° C.; read-out: JH1 BIND. Here is the method:
Example A. JAK2 LanthaScreen JH1 Binding Assay
JAK2 JH1 binding assay utilizes catalytic domain (JH1, amino acids 826-1132) of human JAK2 expressed as N-terminal FLAG-tagged, biotinylated protein in a baculovirus expression system (Carna Biosciences, Product #08-445-20N). The assay was conducted in black 384-well polystyrene plates in a final reaction volume of 20 μL. JAK2 JH1 (1.5 nM) was incubated with compounds (100 nL serially diluted in DMSO) in the presence of 50 nM fluorescent JAK2-JH1 tracer and 0.5 nM Streptavidin-Tb cryptate (Cisbio Part #610SATLB) in assay buffer (50 mM Tris, pH=7.5, 10 mM MgCl2, 0.01% Brij-35, 0.1% BSA, 1 mM EGTA, 5% Glycerol and 5 mM DTT). Non-specific binding was accessed in the presence of 2 mM ATP. After incubation for 2 hours at 25° C., LanthaScreen signals were read on a PHERAstar FS plate reader (BMG LABTECH). Data was analyzed with IDBS XLfit and GraphPad Prism 5.0 software using a four parameter dose response curve to determine IC50 for each compound.

T3 sequence (O60674 826-1132): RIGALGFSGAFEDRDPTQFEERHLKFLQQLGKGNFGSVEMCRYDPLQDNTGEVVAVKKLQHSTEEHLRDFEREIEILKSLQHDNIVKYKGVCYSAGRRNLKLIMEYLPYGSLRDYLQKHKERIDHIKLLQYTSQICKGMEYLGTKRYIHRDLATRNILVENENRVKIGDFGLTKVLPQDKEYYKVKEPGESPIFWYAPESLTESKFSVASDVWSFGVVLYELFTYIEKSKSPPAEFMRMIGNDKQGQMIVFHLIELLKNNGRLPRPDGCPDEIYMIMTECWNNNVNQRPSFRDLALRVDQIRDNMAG
T2 sequence (O60674 536-812 W659A/W777A/F794H): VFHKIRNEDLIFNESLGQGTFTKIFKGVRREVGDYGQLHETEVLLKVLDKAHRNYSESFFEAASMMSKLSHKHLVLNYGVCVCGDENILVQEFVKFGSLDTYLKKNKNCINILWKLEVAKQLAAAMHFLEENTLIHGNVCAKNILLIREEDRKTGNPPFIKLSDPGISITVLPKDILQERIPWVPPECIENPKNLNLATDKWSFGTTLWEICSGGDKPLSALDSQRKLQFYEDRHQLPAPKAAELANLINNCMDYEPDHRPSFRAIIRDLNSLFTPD
T1 sequence (O60674 536-812 V617F/W659A/W777A/F794H): as the sequence (O60674 536-812 W659A/W777A/F794H) above, with V82F counted along it

Turning to `Cn1c(=O)n(C2CCCC2)c2c3c(-c4ccccc4)c(-c4ccc(CN5CCC(S(C)(=O)=O)CC5)cc4)[nH]c3ncc21` [Example 28, 1-Cyclopentyl-3-methyl-7-(4-((4-(methylsulfonyl)piperidin-1-yl)methyl)phenyl)-8-phenyl-3,6-dihydroimidazo[4,5-d]pyrrolo[2,3-b]pyridin-2(1H)-one], the values for the IC50 in experiment [1], in experiment [2] and in experiment [3] were no more than 10 nM, no more than 10 nM and 100 to 500 nM, respectively.
For `Cn1c(=O)n(C2CCCC2)c2c3c(-c4ccccc4)c(-c4cnn(CS(C)(=O)=O)c4)[nH]c3ncc21` [Example 29, 1-Cyclopentyl-3-methyl-7-(1-((methylsulfonyl)methyl)-1H-pyrazol-4-yl)-8-phenyl-3,6-dihydroimidazo[4,5-d]pyrrolo[2,3-b]pyridin-2(1H)-one], the IC50 in experiment [1] was no more than 10 nM; in experiment [2], no more than 10 nM; in experiment [3] it was 100 to 500 nM.
`Cn1c(=O)n(C2CCCC2)c2c3c(-c4ccc(C5(C#N)CC5)cc4)c(-c4ccc(CN5CCC(S(C)(=O)=O)CC5)cc4)[nH]c3ncc21` [Example 30, 1-(4-(1-Cyclopentyl-3-methyl-7-(4-((4-(methylsulfonyl)piperidin-1-yl)methyl)phenyl)-2-oxo-1,2,3,6-tetrahydroimidazo [4,5-d]pyrrolo[2,3-b]pyridin-8-yl)phenyl)cyclo-propane-1-carbonitrile]: the IC50 was no more than 10 nM in experiment [1], no more than 10 nM in experiment [2] and 100 to 500 nM in experiment [3].
Turning to `Cn1c(=O)n(C2CCCC2)c2c3c(-c4ccc(C5(C#N)CC5)cc4)c(-c4cnn(CS(C)(=O)=O)c4)[nH]c3ncc21` [Example 31, 1-(4-(1-Cyclopentyl-3-methyl-7-(1-((methylsulfonyl)methyl)-1H-pyrazol-4-yl)-2-oxo-1,2,3,6-tetrahydroimidazo [4,5-d]pyrrolo[2,3-b]pyridin-8-yl)phenyl)cyclo-propane-1-carbonitrile], the IC50 in experiment [1] was no more than 10 nM; in experiment [2], no more than 10 nM; in experiment [3] it was 100 to 500 nM.
For `COC1CC=C(c2c(-c3ccc(CN4CCC(S(C)(=O)=O)CC4)cc3)[nH]c3ncc4c(c23)n(C2CCCC2)c(=O)n4C)CC1` (stereo not drawn) [Example 32, 1-Cyclopentyl-8-(4-methoxycyclohex-1-en-1-yl)-3-methyl-7-(4-((4-(methylsulfonyl)piperidin-1-yl)methyl)phenyl)-3,6-dihydroimidazo[4,5-d]pyrrolo[2,3-b] pyridin-2(1H)-one], the IC50 in experiment [1] is no more than 10 nM; in experiment [2] it was no more than 10 nM; in experiment [3], 10 to 100 nM.
Take `Cn1c(=O)n(C2CCCC2)c2c3c(C4=CCOCC4)c(-c4ccc(CN5CCC(S(C)(=O)=O)CC5)cc4)[nH]c3ncc21` [Example 33, 1-Cyclopentyl-8-(3,6-dihydro-2H-pyran-4-yl)-3-methyl-7-(4-((4-(methylsulfonyl)piperidin-1-yl)methyl)phenyl)-3,6-dihydroimidazo[4,5-d]pyrrolo[2,3-b] pyridin-2(1H)-one]: the IC50 in experiment [1] is no more than 10 nM; in experiment [2] it was no more than 10 nM; in experiment [3] it was 10 to 100 nM.
In the case of `Cn1c(=O)n(C)c2c3c(C4CC4)c(-c4ccc(CN5CCC(S(C)(=O)=O)CC5)cc4)[nH]c3ncc21` [Example 34], the IC50 in experiment [1] was greater than 1000 nM; in experiment [2], 500 to 1000 nM; in experiment [3], 500 to 1000 nM.
As for `COc1ccc(-c2c(-c3ccc(CN4CCC(S(C)(=O)=O)CC4)cc3)[nH]c3ncc4c(c23)n(C)c(=O)n4C)cn1` [Example 35, 8-(6-Methoxypyridin-3-yl)-1,3-dimethyl-7-(4-((4-(methylsulfonyl)piperidin-1-yl)methyl)phenyl)-3,6-dihydroimidazo[4,5-d]pyrrolo[2,3-b]pyridin-2(1H)-one], the IC50 in experiment [1] is 100 to 500 nM; in experiment [2], 100 to 500 nM; in experiment [3], greater than 1000 nM.
With `CC(C)n1c(=O)n(C)c2cnc3[nH]c(-c4cnn(Cc5ccncc5)c4)c(-c4ccc(C#N)cc4)c3c21` [Example 36, 4-(1-Isopropyl-3-methyl-2-oxo-7-(1-(pyridin-4-ylmethyl)-1H-pyrazol-4-yl)-1,2,3,6-tetrahydroimidazo [4,5-d]pyrrolo[2,3-b]pyridin-8-yl)benzonitrile], the IC50 in experiment [1] was no more than 10 nM; in experiment [2] it was no more than 10 nM; in experiment [3], 100 to 500 nM.
On to `CC(=O)N1CCN(c2ccc(-c3[nH]c4ncc5c(c4c3-c3ccc(C#N)cc3)n(C(C)C)c(=O)n5C)cc2)CC1` [Example 37, 4-(7-(4-(4-Acetylpiperazin-1-yl)phenyl)-1-isopropyl-3-methyl-2-oxo-1,2,3,6-tetrahydroimidazo [4,5-d]pyrrolo[2,3-b]pyridin-8-yl) benzonitrile], for which the IC50 was no more than 10 nM in experiment [1], no more than 10 nM in experiment [2] and greater than 1000 nM in experiment [3].
As to `CC(C)n1c(=O)n(C)c2cnc3[nH]c(C4=CCOCC4)c(-c4ccc(C#N)cc4)c3c21` [Example 38, 4-(7-(3,6-Dihydro-2H-pyran-4-yl)-1-isopropyl-3-methyl-2-oxo-1,2,3,6-tetrahydroimidazo [4,5-d]pyrrolo[2,3-b]pyridin-8-yl)benzonitrile], the IC50 in experiment [1] is 10 to 100 nM; in experiment [2], 10 to 100 nM; in experiment [3] it was greater than 1000 nM.
For the compound `CC(C)n1c(=O)n(C)c2cnc3[nH]c(C4CC4)c(-c4ccc(C#N)cc4)c3c21` [Example 39], the IC50 in experiment [1] is 10 to 100 nM; in experiment [2] it was 10 to 100 nM; in experiment [3], greater than 1000 nM.
As to `Cn1c(=O)n(C)c2c3c(-c4ccccc4)c(-c4cccnc4)[nH]c3ncc21` [Example 40, 1,3-Dimethyl-8-phenyl-7-(pyridin-3-yl)-3,6-dihydroimidazo[4,5-d]pyrrolo[2,3-b]pyridin-2(1H)-one], the results for the IC50 in experiment [1], in experiment [2] and in experiment [3] were greater than 1000 nM, 500 to 1000 nM and greater than 1000 nM, respectively.
As for `Cn1c(=O)n(C)c2c3c(-c4ccccc4)c(C4CCNCC4)[nH]c3ncc21` [Example 41, 1,3-Dimethyl-8-phenyl-7-(piperidin-4-yl)-3,6-dihydroimidazo[4,5-d]pyrrolo[2,3-b]pyridin-2(1H)-one], the IC50 in experiment [1], in experiment [2] and in experiment [3] was greater than 1000 nM throughout.
For `Cn1c(=O)n(C)c2c3c(-c4ccccc4)c(CCO)[nH]c3ncc21` [Example 42, 7-(2-Hydroxyethyl)-1,3-dimethyl-8-phenyl-3,6-dihydroimidazo[4,5-d]pyrrolo[2,3-b]pyridin-2(1H)-one], the IC50 in experiment [1], in experiment [2] and in experiment [3] was greater than 1000 nM throughout.
